# Source: paper PMC9404989, “Design and Evaluation of Short Bovine Lactoferrin-Derived Antimicrobial Peptides against Multidrug-Resistant Enterococcus faecium” (Antibiotics, 2022)
# Where “and” joins values, the source holds several entries; their conditions need not be identical. Equal entries are not always repeated. No end group written: not given here.
# Assays:
# [1] = test system: E. faecium strain C68 primary metabolites; assay: Targeted LC-MS/MS metabolomics; type: cell-based, Enterococcus faecium; conditions: 5L at 2× MIC, 30 min vs control, n = 3
# Experimental: For the metabolomics sample preparation, we used exponential cultures of E. faecium strain C68 grown in BHI media adjusted to OD600 = 0.5. We treated 10 mL of this bacterial culture with 2× MIC of peptide 5L or water (for bacterial control) for 30 min at 37 °C (n = 3, technical replicates). After that, we washed the bacteria 3× times with PBS and stored the pellet at −20 °C. At a later stage, to each cell pellet, we added 0.2 mL of 2-propanol: 100 mM of NH4HCO3, pH 7.4 (1:1 v/v), and sonicated the cells. For spiking, we added 20 µL of IS to each sample and vortexed them. Subsequently, we added 1.0 mL of methanol for deproteinization and cooled the mixture at −20 °C for 10 min. After centrifugation for 10 min at 14,000× g at 4 °C, we transferred the supernatants into glass tubes and dried them under a stream of nitrogen at 40 °C. Finally, we dissolved the residues in 100 µL of water and injected 3 µL of this solution into an LC-MS/MS 8060 system (Shimadzu Scientific Inc., Columbia, MD, USA), equipped with a DUIS source operated in both positive and negative electrospray ionization modes. For the liquid chromatographic analysis, we used the Nexera UPLC system (Shimadzu Scientific Inc., Columbia, MD, USA). We quantitated primary metabolites (~150) following an established LC-MS/MS method.
# E. faecium strain C68 = assay: Growth inhibition assay; type: cell-based, Enterococcus faecium; conditions: 32 µg/mL, OD600 over 4 h
# Experimental: We cultivated overnight cultures of E. faecium strain C68 in BHI media. We inoculated the bacteria in a fresh BHI medium the next day to achieve the exponential phase and adjusted the bacterial density to 1 × 10^8 CFU/mL. We added 90 µL of this bacterial culture to each well of the microtiter plates (Cat No. 3595, Corning, New York, NY, USA) containing 10 µL of serially diluted 10× peptide solution. We monitored the bacterial growth on a SpectraMax i3x spectrophotometer (Molecular Devices, San Jose, CA, USA) by taking OD600 readings every 10 min for 4 h.
substance,measurement,setting,value
RRWLWLRRWLWR-NH2 [Peptide 5L],Fold change 2-Aminobutryc acid,[1],0.480 fold
same,Fold change 4-Aminobutryc acid,[1],4.319 fold
same,Fold change Adenine,[1],0.311 fold
same,Fold change Adenylsuccinic acid,[1],0.226 fold
same,Fold change Alanine,[1],0.383 fold
same,Fold change Allantoin,[1],2.67 fold
same,Fold change Arginosuccinic acid,[1],0.204 fold
same,Fold change Aspartic acid,[1],0.197 fold
same,Fold change Carbamoyl aspertate,[1],2.212 fold
same,Fold change Citicoline,[1],0.233 fold
same,Fold change Citric acid,[1],0.244 fold
same,Fold change Cobalamine,[1],2.285 fold
same,Fold change Cystathionine,[1],0.369 fold
same,Fold change Cysteine,[1],0.047 fold
same,Fold change Dopa,[1],0.337 fold
same,Fold change Dopamine,[1],3.107 fold
same,Fold change Fumaric acid,[1],0.387 fold
same,Fold change Glutathione,[1],0.376 fold
same,Fold change Guanine,[1],0.130 fold
same,Fold change Guanosine,[1],0.275 fold
same,Fold change Histidine,[1],0.420 fold
same,Fold change Inosine,[1],0.239 fold
same,Fold change Isocitric acid,[1],0.237 fold
same,Fold change Isoleucine,[1],0.458 fold
same,Fold change Kynureine,[1],2.152 fold
same,Fold change Leucine,[1],0.373 fold
same,Fold change Malic acid,[1],0.392 fold
same,Fold change Methionine,[1],0.175 fold
same,Fold change NAD,[1],0.415 fold
same,Fold change Ornitine,[1],0.378 fold
same,Fold change Oxidized glutathione,[1],0.403 fold
same,Fold change Phenylalanine,[1],0.423 fold
same,Fold change Putriscine,[1],7.197 fold and 7 fold
same,Fold change S-Adenosylhomocysteine,[1],0.267 fold
same,Fold change Serine,[1],0.033 fold and 0.03 fold
same,Fold change Serotonin,[1],2.886 fold
same,Fold change Succinic acid,[1],0.204 fold
same,Fold change Symmetric dimethylarginine,[1],2.347 fold
same,Fold change Threonine,[1],0.384 fold
same,Fold change Thymidine,[1],0.320 fold
same,Fold change Tryptophan,[1],0.178 fold
same,Fold change Uridine,[1],0.228 fold
same,Fold change Valine,[1],0.433 fold
same,Fold change Xanthosine,[1],0.315 fold
RRWLWRLRWLWR-NH2 [Peptide 6L],growth inhibition,E. faecium strain C68,inhibited the maximum growth
